Measurements from publication PMC5966509 (Scientific Reports, 2018).

Molecular target: T1, hA3G (human APOBEC3G) (Homo sapiens, UniProt Q9HC16)
T1 construct: 10067; biotinylated with NHS-biotin 3:1
Experiment: biolayer interferometry (Octet RED, super streptavidin sensors)
Assay type: binding
Conditions: biotinylated hA3G immobilised; 5% DMSO; kinetic constant from kon/koff

T1 sequence (Q9HC16 whole entry): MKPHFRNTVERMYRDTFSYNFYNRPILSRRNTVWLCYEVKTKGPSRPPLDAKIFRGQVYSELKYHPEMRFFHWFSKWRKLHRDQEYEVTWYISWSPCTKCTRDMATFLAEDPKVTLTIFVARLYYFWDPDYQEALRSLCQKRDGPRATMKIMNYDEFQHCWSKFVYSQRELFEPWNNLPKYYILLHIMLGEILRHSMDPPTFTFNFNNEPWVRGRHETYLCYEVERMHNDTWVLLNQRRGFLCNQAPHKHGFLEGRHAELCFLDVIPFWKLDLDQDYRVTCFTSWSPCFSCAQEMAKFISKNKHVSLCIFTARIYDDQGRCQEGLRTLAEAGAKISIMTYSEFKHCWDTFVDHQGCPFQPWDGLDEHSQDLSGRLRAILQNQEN

Substance: IMB-301
- Ligand (hA3G) / KD (M): 1.56E − 05 M
